Source: patent US9113629B2, “4-amino-6-(4-substituted-phenyl)-picolinates and 6-amino-2-(4-substituted-phenyl)-pyrimidine-4-carboxylates and their use as herbicides” (DOW AGROSCIENCES LLC, priority 2013, dated 2015)
Read-outs that look alike come from different tables or passages of the source.

Columns and labels:
[1] = tested on: Key Broadleaf Weed and Crop Species; experiment: Post-emergent Test II herbicidal activity (Table 5); format: in vivo; conditions: post-emergence, 336 h, post-emergent, 14 days after application; for pest or weed control at 70 g/ha: 70 g ai/ha; for pest or weed control at 140 g/ha: 140 g ai/ha
In short: (§1)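 Greenhouse post-emergent assay: seedlings (first/second true leaf) in Metro-Mix 360 were sprayed at 187 L/ha at a top rate plus twofold dilutions down to 1/16×; solvent-blank controls were included. Percent visual injury was read at 14 d.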

[2] = tested on: Key Grass and Sedge Weeds as well as Grass Crops; experiment: Post-emergent Test II herbicidal activity (Table 6); format: in vivo; conditions: post-emergence, 336 h; for pest or weed control at 70 g/ha: application rate 70 g ai/ha; for pest or weed control at 140 g/ha: application rate 140 g ai/ha
In short: as §1

[3] = ABUTH: velvetleaf (Abutilon theophrasti), read-out: Visual Growth Reduction (%) 14 Days After Application ABUTH
[4] = AMARE: redroot pigweed (Amaranthus retroflexus), read-out: Visual Growth Reduction (%) 14 Days After Application AMARE
[5] = BRSNN: oilseed-rape, canola (Brassica napus), read-out: Visual Growth Reduction (%) 14 Days After Application BRSNN
[6] = CHEAL: lambsquarters (Chenopodium album), read-out: Visual Growth Reduction (%) 14 Days After Application CHEAL
[7] = EPHHL: wild poinsettia (Euphorbia heterophylla), read-out: Visual Growth Reduction (%) 14 Days After Application EPHHL
[8] = HELAN: sunflower (Helianthus annuus), read-out: Visual Growth Reduction (%) 14 Days After Application HELAN
[9] = VIOTR: wild pansy (Viola tricolor), read-out: Visual Growth Reduction (%) 14 Days After Application VIOTR
[10] = Triticum aestivum, TRZSS (wheat), read-out: Visual Growth Reduction (%) 14 Days After Application, TRZSS
[11] = CYPES: yellow nutsedge (Cyperus esculentus), read-out: Visual Growth Reduction (%) 14 Days After Application, CYPES
[12] = DIGSA: crabgrass (Digitaria sanguinalis), read-out: Visual Growth Reduction (%) 14 Days After Application, DIGSA
[13] = ECHCG: barnyardgrass (Echinochloa crus-galli), read-out: Visual Growth Reduction (%) 14 Days After Application, ECHCG
[14] = ORYSA: rice (Oryza sativa), read-out: Visual Growth Reduction (%) 14 Days After Application, ORYSA
[15] = SETFA: giant foxtail (Setaria faberi), read-out: Visual Growth Reduction (%) 14 Days After Application, SETFA
[16] = SORVU: grain sorghum (Sorghum vulgare), read-out: Visual Growth Reduction (%) 14 Days After Application, SORVU
[17] = ZEAMX: maize, corn (Zea mays), read-out: Visual Growth Reduction (%) 14 Days After Application, ZEAMX

| SMILES | pest or weed control at 70 g/ha [1, 3] [%] | pest or weed control at 140 g/ha [1, 3] [%] | pest or weed control at 70 g/ha [1, 4] [%] | pest or weed control at 140 g/ha [1, 4] [%] | pest or weed control at 70 g/ha [1, 5] [%] | pest or weed control at 140 g/ha [1, 5] [%] | pest or weed control at 70 g/ha [1, 6] [%] | pest or weed control at 140 g/ha [1, 6] [%] | pest or weed control at 70 g/ha [1, 7] [%] | pest or weed control at 140 g/ha [1, 7] [%] | pest or weed control at 70 g/ha [1, 8] [%] | pest or weed control at 140 g/ha [1, 8] [%] | pest or weed control at 70 g/ha [1, 9] [%] | pest or weed control at 140 g/ha [1, 9] [%] | pest or weed control at 70 g/ha [2, 10] [%] | pest or weed control at 140 g/ha [2, 10] [%] | pest or weed control at 70 g/ha [2, 11] [%] | pest or weed control at 140 g/ha [2, 11] [%] | pest or weed control at 70 g/ha [2, 12] [%] | pest or weed control at 140 g/ha [2, 12] [%] | further results |
| --- | --- | --- | --- | --- | --- | --- | --- | --- | --- | --- | --- | --- | --- | --- | --- | --- | --- | --- | --- | --- | --- |
| COC(=O)c1nc(-c2ccc(OC(F)F)cc2)c(C)c(N)c1Cl [Compound 111, Methyl 4-amino-3-chloro-6-(4-(difluoromethoxy)phenyl)-5-methylpicolinate] | 30 to 44 | 60 to 74 | 0 to 29 | 0 to 29 | 0 to 29 | 0 to 29 | 30 to 44 | 60 to 74 | 0 to 29 | 0 to 29 | 75 to 84 | 85 to 94 | 0 to 29 | 0 to 29 | 0 to 29 | 0 to 29 | 0 to 29 | 0 to 29 | 0 to 29 | 0 to 29 | pest or weed control at 70 g/ha [2, 13]: 0 to 29%; pest or weed control at 140 g/ha [2, 13]: 0 to 29%; pest or weed control at 70 g/ha [2, 14]: 0 to 29%; pest or weed control at 140 g/ha [2, 14]: 0 to 29%; pest or weed control at 70 g/ha [2, 15]: 0 to 29%; pest or weed control at 140 g/ha [2, 15]: 0 to 29%; pest or weed control at 70 g/ha [2, 16]: 0 to 29%; pest or weed control at 140 g/ha [2, 16]: 0 to 29%; pest or weed control at 70 g/ha [2, 17]: 0 to 29%; pest or weed control at 140 g/ha [2, 17]: 0 to 29% |
| COC(=O)c1nc(-c2ccc(Br)c(F)c2)c(C)c(N)c1Cl [Compound 112, Methyl 4-amino-6-(4-bromo-3-fluorophenyl)-3-chloro-5-methylpicolinate] | 95 to 100 | 95 to 100 | 95 to 100 | 95 to 100 | 85 to 94 | 85 to 94 | 85 to 94 | 85 to 94 | 0 to 29 | 0 to 29 | 95 to 100 | 95 to 100 | 0 to 29 | 0 to 29 | 45 to 59 | 60 to 74 | 95 to 100 | 95 to 100 | 60 to 74 | 60 to 74 | pest or weed control at 70 g/ha [2, 13]: 60 to 74%; pest or weed control at 140 g/ha [2, 13]: 60 to 74%; pest or weed control at 70 g/ha [2, 14]: 0 to 29%; pest or weed control at 140 g/ha [2, 14]: 0 to 29%; pest or weed control at 70 g/ha [2, 15]: 85 to 94%; pest or weed control at 140 g/ha [2, 15]: 95 to 100%; pest or weed control at 70 g/ha [2, 16]: 85 to 94%; pest or weed control at 140 g/ha [2, 16]: 85 to 94%; pest or weed control at 70 g/ha [2, 17]: 60 to 74%; pest or weed control at 140 g/ha [2, 17]: 60 to 74% |
